Source: patent publication US7238527B2, “Methods and compositions for rapid in vitro propagation of Swertia chirata” (priority 2001, dated 2007)

System: Swertia chirata shoots
Experiment: Rooting of excised four-week shoots on modified MS with auxins (Example 3)
Type: cell-based
Conditions: for Rooting %: agar 0.8%
Protocol: The effect of various auxins on rooting percent and duration may be studied using four-week shoots obtained in the preceding section.
The excised shoot may be transferred to modified MS basal culture medium with varied concentrations of several auxins selected from a group comprising IAA, IBA, and NAA as shown in Table 3.
In this experiment there are 3 treatments of auxin IAA, IBA and NAA using various levels (1–5 mg/L) supplemented to modified MS media, Supporting system Agar (0.8%).
Four weeks long shoot achieved in experiment 2 were excised and transferred to above referred medium

In the case of indole butyric acid [IBA], the Time to rooting (1.0 to 5.0 mg/L auxin in modified MS basal culture medium) is reported as “about 8 weeks”, the “Rooting (wks)” value (auxin 1 mg/L in modified MS) is reported as 8 wks and the Rooting % (auxin 1 mg/L in modified MS) is reported as 60%. The “Rooting (wks)” value (auxin 2 mg/L in modified MS) was 8 wks, the Rooting % (auxin 2 mg/L in modified MS) was 62% and the “Rooting (wks)” value (auxin 5 mg/L in modified MS) was 8 wks. For the same substance, the Rooting % (auxin 5 mg/L in modified MS) was 60% and the Root morphology (in words) was “white colored, thick, and short”.
